What was measured:
Phospholipase A2 (PLA2) = molecular target: T1, Phospholipase A2 (PLA2) (Rattus norvegicus, UniProt P14423); experiment: In vitro assay for inhibitors of Phospholipase A2 (PLA2); format: biochemical; conditions: PLA2 from aggregated purified rat platelets; 14C-phosphatidylcholine substrate; pH 7.2, 37°C, 30 minutes; read-out: (PLA2) Phospholipase A2 inhibition (I50)
T1 construct: obtained by aggregation of purified rat platelets; from tissue; host or cells: rat platelets (material obtained on aggregation)
T1 sequence (P14423 22-146): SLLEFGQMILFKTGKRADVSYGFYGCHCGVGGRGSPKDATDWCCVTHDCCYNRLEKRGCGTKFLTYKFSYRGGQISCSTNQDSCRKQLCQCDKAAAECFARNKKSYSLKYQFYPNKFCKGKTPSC
Text: (§1) Two assays have been developed to test the ability of the invented compounds on the activity of the phospholipases. In one protocol, a procedure is described for testing the inhibitory effects of these compounds on Phospholipase C (PLC), while the other protocol describes a means for testing the inhibitory effect of these compounds on Phospholipase A2 (P^LA2).
Protocol for In Vitro Assay for Inhibitors of Phospholipase A2 Assayed at oH 7.0 (PLA2)
The PLA2 employed in this screen is obtained by aggregation of purified rat platelets. In the enzyme assay phosphatidylcholine having ^14C-labeled palmitate residues at Rl and R2 is employed as substrate. PLA2 acts by cleaving the R2 fatty acid ester bond yielding free fatty acid and lysophosphatidyl choline as follows: [drawing 22]
Following completion of the reaction, the assay medium is acidified and extracted with hexane, which takes up unreacted substrate and free fatty acid product. The hexane extract is passed over a short silica gel column which retains 99% of the phosphatidyl choline. The ^14C-labeled palmitic acid is not retained (90% recovery in eluate) and is collected directly in scintillation counting vials. The released palmitic acid is conveniently quantitated by liquid scintillation spectrometry.
The compounds were tested at 100 uM in a buffer containing 0.3 mM unlabeled phosphatidylcholine (PC), 20-30,000 cpm of ^14C [PC], 100 mM NaCl, 1 mM CaCl2 and 50 mM Tris-HCL adjusted to pH 7.2 with 1 N NaOH. […] The reaction was initiated by addition of the enzyme and it was terminated 30 minutes later by the addition of 100 ml of 1 N HCL.
Following acidification, the complex was extracted with 2 ml of 2-propanol and 2 ml of hexane, vortexed, and allowed to stand until the phases separated. Free fatty acids (FFA) and some unreacted substrate were taken up in the isopropanol-saturated hexane. The hexane phase of the extraction mixture was transferred to a short silica gel column which retained unreacted PC but not the FFA. The column effluent was collected directly in scintillation vials. The columns were washed once with an additional 2 ml of hexane. The radiolabeled FFA were ^quantitated by liquid scintillation spectrometry.

Rat PMN 5-lipoxygenase = molecular target: T2, Rat PMN 5-lipoxygenase (Rattus norvegicus, UniProt P12527); experiment: Protocol for detecting inhibitors of the lipoxygenase pathway (5-HETE formation in rat neutrophils); format: cell-based; conditions: suspension of rat neutrophils, 3 minutes at 30°C with [14C]-arachidonic acid and Calcium Ionophore A23187; net 5-HETE produced; read-out: Rat PMN 5-lipoxygenase inhibition (I50)
T2 construct: endogenous in cells; host or cells: rat neutrophils (PMN)
T2 sequence (P12527 1-673): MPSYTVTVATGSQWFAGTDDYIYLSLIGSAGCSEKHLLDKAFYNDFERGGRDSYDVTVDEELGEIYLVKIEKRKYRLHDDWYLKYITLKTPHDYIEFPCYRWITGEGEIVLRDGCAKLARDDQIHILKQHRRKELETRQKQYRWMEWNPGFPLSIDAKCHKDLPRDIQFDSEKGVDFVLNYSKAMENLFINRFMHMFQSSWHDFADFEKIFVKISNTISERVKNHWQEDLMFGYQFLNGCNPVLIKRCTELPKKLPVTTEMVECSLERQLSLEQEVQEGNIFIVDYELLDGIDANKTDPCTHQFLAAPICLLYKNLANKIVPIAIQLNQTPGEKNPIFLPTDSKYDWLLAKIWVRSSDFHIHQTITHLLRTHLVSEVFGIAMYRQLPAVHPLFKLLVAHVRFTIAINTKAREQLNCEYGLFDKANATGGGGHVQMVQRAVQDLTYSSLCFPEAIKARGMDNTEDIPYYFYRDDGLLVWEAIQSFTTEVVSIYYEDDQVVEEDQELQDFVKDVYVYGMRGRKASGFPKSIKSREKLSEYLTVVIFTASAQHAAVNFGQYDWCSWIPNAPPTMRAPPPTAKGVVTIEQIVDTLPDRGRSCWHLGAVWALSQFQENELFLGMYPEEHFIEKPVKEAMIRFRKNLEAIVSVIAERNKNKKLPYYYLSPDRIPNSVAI
Protocol: The following protocol describes an assay to detect inhibitors of the lipoxygenase pathway. Such inhibitors are believed to be capable of modulating the biosynthesis of the leukotrienes, a property believed to be useful in treating asthma and inflammatory disease states.
Protocol for Detecting Inhibitors of the Lipoxygenase Pathway
A suspension of rat neutrophils in buffer is incubated for 3 minutes at 30°C with [^14]-arachidonic acid (AA) and Calcium Ionophore A23'187. Citric acid (2M) is used to quench the reaction. Following the addition of a trace amount of (^3H)-5-HETE together with an excess of unlabeled 5-HETE to each tube, the mixture is extracted with chloroform/methanol. The organic layer is washed with dilute acid and an aliquot is transferred to glass tubes and dried. The residue is dissolved in a small volume of chloroform and an aliquot is spotted on silica gel TLC sheets, which are developed with an ethyl acetate/isooctane/water/acetic acid solvent system. The 5-HETE spots are visualized with iodine, cut out and placed in scintillation vials for counting. After adjusting for the extraction efficiency, the amount (pmole) of [^14C]-5-HETE in each of the tubes is quantitated by substracting the net pmoles of 5-HETE in the tubes containing buffer alone (blank) from the pmoles of 5-HETE in the tubes containing […]. The ability of the test compounds to modulate the activity of this enzyme is determined by a decrease or increase in the net amount of 5-HETE produced.

Phospholipase C (PLC) = experiment: In vitro assay for inhibitors of Phospholipase C (PLC); format: biochemical; conditions: PLC from aggregated purified rat platelets (CaCl2, ADP); 3H-phosphatidylinositol substrate; pH 9.0, 37°C, 10 minutes; read-out: (PLC) Phospholipase C inhibition (I50)
Text: as §1
Protocol for In Vitro Assay for Inhibitors of
The PLC employed in this screen is obtained by aggregation of purified rat platelets in the presence of CaCl2 and ADP. In the enzyme assay, phosphatidylinositol having ^3H-labeled arachidonate residues at R2 is employed as substrate. PLC acts by cleaving the phosphate ester bond yielding diglyceride as follows: [drawing 21] ^3H-Phosphatidylinosit-tol ^3H-diglyceride Inositol (cont.)
Following completion of the reaction, the assay medium is acidified and extracted with hexane which takes up unreacted substrate and diglvceride. The hexane extract is passed over a short silica gel column which retains 99% of the phosphatidylinositol. […] The diglyceride is conveniently quantitated by liquid scintillation spectrometry. […]
Following acidification, the samples were extracted with 2 ml of isopropyl alcohol and 2 ml of hexane, vortexed and allowed to stand until the phrases separate. […] The radiolabeled diglycerides were quantitated by liquid scintillation spectrometry.

Row | IC50 (Rat PMN 5-lipoxygenase) [µM] | Compound | IC50 (Phospholipase A2 (PLA2)) [µM] | IC50 (Phospholipase C (PLC)) [µM]
1 | – | CC1CCCC(=Cc2ccc(OCc3ccccc3)cc2)C1O (stereo not drawn) [Compound 40] | 170 | –
2 | 4.5 | CC(C)(C)C(O)C=CC=Cc1ccc(OCc2ccccc2)cc1 (stereo not drawn) [Compound 34] | – | –
3 | 2.3 | CC(C)(C)C(O)C=Cc1ccc(OCc2ccccc2)c(OCc2ccccc2)c1 (stereo not drawn) [Compound 29] | – | –
4 | 10 | CCCCCC(O)C=Cc1ccc(OCc2ccccc2)cc1OCc1ccccc1 (stereo not drawn) [Compound 23] | – | –
5 | 7 | CCCCCC(O)C=CC=Cc1ccc(OCc2ccccc2)cc1 (stereo not drawn) [Compound 32] | – | –
6 | – | CN(C)CCC(O)C=Cc1ccc(OCc2ccccc2)cc1 (stereo not drawn) [Compound 37] | – | 24
7 | 1.4 | OCC=Cc1ccc(OCc2ccccc2)cc1OCc1ccccc1 [Compound 42] | – | –
8 | 2 | CC(O)C=Cc1ccc(OCc2ccccc2)c(OCc2ccccc2)c1 (stereo not drawn) [Compound 28] | – | –

Row | Compound | IC50 (Rat PMN 5-lipoxygenase) [µM] | IC50 (Phospholipase A2 (PLA2)) [µM] | IC50 (Phospholipase C (PLC)) [µM]
9 | CC(O)C=Cc1ccc(OC(c2ccccc2)c2ccccc2)cc1 (stereo not drawn) [Compound 39] | 3.5 | 31 | –
10 | CC(O)C=Cc1ccc(OCc2ccccc2)cc1 [Compound 21, 4-(D-BenzyloxyDhenyl)-3-buten-2-ol] | 1.5 | 120 | –
11 | CC(C)(C)C(O)C=Cc1ccc(OCc2ccccc2)cc1OCc1ccccc1 (stereo not drawn) [Compound 25] | 1.1 | 80 | –
12 | CC(C)(C)CC(O)C=Cc1ccc(OCc2ccccc2)cc1OCc1ccccc1 (stereo not drawn) [Compound 24] | 0.3 | 100 | –
13 | CC(O)C=Cc1ccc(OCc2ccccc2)cc1OCc1ccccc1 (stereo not drawn) [Compound 22] | 1 | 90 | –
